Measurements: publication PMC11249953, “c-KIT inhibitors reduce pathology and improve behavior in the Tg(SwDI) model of Alzheimer’s disease” (Life Science Alliance, 2024)
Several values for one entry are separate records, joined by “and”; a condition that tells them apart may be missing. Equal entries are not always repeated.

Columns and labels:
[1] = test system: TgAPP mice; assay: Morris water maze, TgAPP mice; format: in vivo, mouse; design: Platform Distance: unit not given beside the values; Total Distance / Quad Time / Quad Distance / Trial 1 D4 / Trial 1 D4 AVG: unit not given here
Protocol: The Morris water maze was performed using a water bath 6 ft in diameter and filled with roughly 1 ft of water. The maze was divided into four quadrants, each with a visual stimulus positioned on the wall of the maze in the center of the quadrant arc. A clear platform was placed in one quadrant just beneath the surface of the water. Mice were then placed in a random non-platform quadrant and allowed to swim freely for 60 s (time was stopped and recorded if the mouse found the platform) before being placed on the platform for 15 s and returned to their cage. This was repeated for each of the three quadrants each day for 4 d. On the 5th d, the platform was removed and mice were placed in the quadrant opposite of where the platform had been and allowed to swim freely for 1 min before being returned to their cage. Time spent in the correct quadrant, latency to the platform, number of platform entries, and number of quadrant entries were recorded.

[2] = test system: mice; assay: Elevated plus maze, source data sheets EPM (mouse line not given); format: in vivo; conditions: for EPM Trial 1 Closed Entries / EPM Trial 1 Open Entries / EPM Trial 2 Closed Entries / EPM Trial 2 Open Entries / EPM Trial 2 Time Closed / EPM Trial 1 Time Closed / EPM Trial 1 Time Open / EPM Trial 2 Time Open / EPM Totals Closed Entries / EPM Totals Open Entries / EPM Totals Time Closed / EPM Totals Time Open: individual mice; for EPM Trial 2 Time Closed / EPM Totals Time Closed / EPM Totals Time Open / Time Open: in s (unit assumed); for EPM Trial 1 Time Closed / EPM Trial 1 Time Open / EPM Trial 2 Time Open / Time Closed / Time Closed AVG / Time Open AVG: in s; for EPM Totals Closed Entries / EPM Totals Open Entries / EPM Totals Time Closed / EPM Totals Time Open: sum of trials 1 and 2; for Closed Entries AVG / Open Entries AVG / Time Closed AVG / Time Open AVG: group average
Protocol: The elevated plus maze was performed using a standard set up, with two enclosed arms and two open arms. Mice were placed at the intersection of the open and closed arms and allowed to freely explore for 5 min, two times. Time spent in the open and closed arms and number of entries into the open and closed arms were recorded.

[3] = MWM Probe, single animal values, listed as 143
[4] = MWM Probe, single animal values, listed as 143, in s (unit assumed)
[5] = MWM training, Day 1, single animal values, listed as 143
[6] = MWM training, Day 2, single animal values, listed as 143
[7] = MWM training, Day 3, single animal values, listed as 143
[8] = MWM training, Day 4, single animal values, listed as 143
[9] = 2.5mg/kg, listed as 143, female mice
[10] = 2.5mg/kg, listed as 143, male mice
[11] = 5.0mg/kg, listed as 143, female mice
[12] = 5.0mg/kg, listed as 143, male mice
[13] = Totals (Trial 1 + Trial 2), individual animals, listed as 143
[14] = Trial 1, individual animals, listed as 143
[15] = Trial 2, individual animals, listed as 143

## Cc1cccc(-c2cc3nccc(Nc4ccccc4)c3s2)c1 [BK40143]
[1]; [3]
  Platform Distance: 0.467 and 0 and 0.449 and 0.195 and 0.184 and 0.331 and 0.254 and 0.89 and 0.328
  Platform Entries: 2 and 0 and 1 and 3
  Quad Distance: 5.043 and 5.446 and 3.201 and 3.934 and 3.492 and 4.145 and 2.65 and 6.181 and 3.964
  Quad Distance/Total: 0.3982 and 0.4027 and 0.1894 and 0.2536 and 0.5166 and 0.3292 and 0.1787 and 0.6061 and 0.2552
  Quad Entries: 10 and 8 and 9 and 3 and 6 and 13 and 7
  Quad Time: 22.9 and 26.8 and 10.6 and 13.3 and 30.6 and 20.6 and 8.1 and 36.5 and 15.3
  Total Distance: 12.663 and 13.525 and 16.899 and 15.514 and 6.759 and 12.592 and 14.83 and 10.786 and 10.198 and 15.531
[1]; MWM Probe, single animal values, listed as 143, in s
  Platform Latency: 7 and 60 and 18.8 and 32.8 and 39.9 and 29.7 and 3.9 and 19 and 17.1
[1]; [4]
  Platform Time: 1.2 and 0 and 1.4 and 0.6 and 0.8 and 5.3 and 1
  Quad Latency: 3 and 9.6 and 9.7 and 11.8 and 11.9 and 1 and 2.6 and 4.4 and 3.3
  Quad Time per Entry: 2.29 and 3.35 and 1.178 and 4.433 and 5.1 and 1.585 and 1.35 and 5.214 and 1.9125
[1]; MWM training, Day 1, group average
  Training Day 1 AVG: 51.6747
[1]; MWM training, Day 1, per-animal mean, listed as 143
  Training Day 1, mean of the three trials per animal: 53.4467 and 60 and 52.4667 and 29.4467 and 47.4833 and 58.2367 and 44.37 and 51.2967
[1]; [5]
  Training Day 1, trial 1: 40.34 and 60 and 56.02
  Training Day 1, trial 2: 60 and 37.4 and 16.7 and 22.45 and 54.71 and 56.59
  Training Day 1, trial 4: 60 and 11.64 and 20.5 and 33.89
[1]; MWM training, Day 2, group average
  Training Day 2 AVG: 35.2243
[1]; MWM training, Day 2, per-animal mean, listed as 143
  Training Day 2, mean of the three trials per animal: 48.7167 and 60 and 46.3833 and 23.8467 and 50.26 and 10.58 and 21.0467 and 41.7533 and 44.3033 and 5.353
[1]; [6]
  Training Day 2, trial 1: 60 and 20.69 and 7.13 and 14.22 and 47.78 and 22.96 and 5.56
  Training Day 2, trial 2: 60 and 19.15 and 23.07 and 4.53 and 36.28 and 34.46 and 5.16
  Training Day 2, trial 4: 26.15 and 60 and 27.78 and 30.78 and 20.08 and 12.64 and 43.02 and 49.95 and 5.34
[1]; MWM training, Day 3, group average
  Training Day 3 AVG: 21.9237
[1]; MWM training, Day 3, per-animal mean, listed as 143
  Training Day 3, mean of the three trials per animal: 16.49 and 19.77 and 22.4067 and 12.88 and 27.5233 and 6.497 and 51.49 and 20.0267 and 24.96 and 17.1933
[1]; [7]
  Training Day 3, trial 1: 5.91 and 7.09 and 10.32 and 15.21 and 29.09 and 11.01 and 60 and 23.94 and 21.27 and 31.09
  Training Day 3, trial 2: 2.72 and 9.21 and 18.46 and 13.59 and 19.08 and 3.47 and 34.47 and 8.82 and 17.41 and 5.46
  Training Day 3, trial 4: 40.84 and 43.01 and 38.44 and 9.84 and 34.4 and 5.01 and 60 and 27.32 and 36.2 and 15.03
[1]; MWM training, Day 4, Trial 1, group average
  Trial 1 D4 AVG: 16.872
[1]; MWM training, Day 4, group average
  Training Day 4 AVG: 25.5753
[1]; MWM training, Day 4, per-animal mean, listed as 143
  Training Day 4, mean of the three trials per animal: 15.5667 and 10.07 and 25.41 and 53.8233 and 37.2967 and 27.5933 and 22.5667 and 22.4167 and 10.7767 and 30.2333
[1]; [8]
  Training Day 4, trial 1: 12.47 and 11.66 and 37.95 and 60 and 26.19 and 10.69 and 29.33 and 43.27 and 12.2 and 43.31
  Training Day 4, trial 2: 3.58 and 4.64 and 11.51 and 49.87 and 42.77 and 12.09 and 15.35 and 10.7 and 9.45 and 8.76
  Training Day 4, trial 4: 30.65 and 13.91 and 26.77 and 51.6 and 42.93 and 60 and 23.02 and 13.28 and 10.68 and 38.63
[1]; TgAPP mice, 5 mg/kg IP, 6 wk, vs DMSO
  Morris water maze probe day (time in correct quadrant, quadrant entries, latency to platform): showed improvement on measures of memory on the probe day of the water maze
[1]; TgAPP mice, BK40143 5 mg/kg, BK40197 45 mg/kg IP, 6 wk, vs DMSO
  Morris water maze training trials: time to locate the platform: locate the platform significantly quicker on later training trials
[2]; [9]
  EPM Trial 1 Closed Entries: 7 and 2 and 1 and 3 and 5
  EPM Trial 1 Open Entries: 6 and 2 and 1 and 5 and 3
  EPM Trial 2 Closed Entries: 2 and 8 and 1 and 5
  EPM Trial 2 Open Entries: 1 and 6 and 0 and 4
  EPM Trial 2 Time Closed: 296 and 240 and 300 and 257 and 277
  EPM Trial 1 Time Closed: 280 and 287 and 293 and 268 and 258 and 222
  EPM Trial 1 Time Open: 20 and 13 and 7 and 32 and 42 and 78
  EPM Trial 2 Time Open: 4 and 60 and 0 and 43 and 23
  EPM Totals Closed Entries: 9 and 10 and 2 and 3 and 8 and 11
  EPM Totals Open Entries: 7 and 8 and 1 and 5 and 10
  EPM Totals Time Closed: 576 and 527 and 593 and 568 and 515 and 499
  EPM Totals Time Open: 24 and 73 and 7 and 32 and 85 and 101
[2]; [10]
  EPM Trial 2 Time Closed: 251
  EPM Trial 1 Time Closed: 255
  EPM Trial 1 Time Open: 45
  EPM Trial 2 Time Open: 49
  EPM Trial 1 Closed Entries: 10
  EPM Trial 1 Open Entries: 10
  EPM Trial 2 Closed Entries: 6
  EPM Trial 2 Open Entries: 8
  EPM Totals Time Closed: 506
  EPM Totals Time Open: 94
  EPM Totals Closed Entries: 16
  EPM Totals Open Entries: 18
[2]; [11]
  EPM Trial 1 Closed Entries: 2 and 3 and 5 and 4
  EPM Trial 1 Open Entries: 1 and 5 and 4
  EPM Trial 2 Closed Entries: 1 and 6 and 13
  EPM Trial 2 Open Entries: 0 and 6 and 1 and 7
  EPM Trial 2 Time Closed: 300 and 219 and 298 and 244
  EPM Trial 1 Time Closed: 297 and 266 and 284 and 290 and 268 and 259
  EPM Trial 1 Time Open: 3 and 34 and 16 and 10 and 32 and 41
  EPM Trial 2 Time Open: 0 and 81 and 2 and 56
  EPM Totals Closed Entries: 3 and 9 and 6 and 17
  EPM Totals Open Entries: 1 and 11 and 4 and 5
  EPM Totals Time Closed: 597 and 485 and 584 and 590 and 566 and 503
  EPM Totals Time Open: 3 and 115 and 16 and 10 and 34 and 97
[2]; [12]
  EPM Trial 2 Time Closed: 237 and 280 and 238
  EPM Trial 1 Time Closed: 300 and 261 and 228 and 166
  EPM Trial 1 Time Open: 0 and 39 and 72 and 134
  EPM Trial 2 Time Open: 63 and 20 and 62
  EPM Trial 1 Closed Entries: 1 and 6 and 9
  EPM Trial 1 Open Entries: 0 and 6 and 9
  EPM Trial 2 Closed Entries: 7 and 8
  EPM Trial 2 Open Entries: 3 and 8
  EPM Totals Time Closed: 600 and 498 and 508 and 404
  EPM Totals Time Open: 0 and 102 and 92 and 196
  EPM Totals Closed Entries: 2 and 11 and 13
  EPM Totals Open Entries: 0 and 9 and 17
[2]; [13]
  Closed Entries: 15 and 5 and 8 and 6 and 9 and 14 and 11
  Open Entries: 10 and 7 and 8 and 6 and 12 and 17
  Time Closed: 435 and 498 and 481 and 538 and 465 and 421 and 544 and 262 and 497 and 529
  Time Open: 165 and 102 and 119 and 62 and 135 and 179 and 56 and 338 and 103 and 71
[2]; Totals
  Closed Entries AVG: 11.2
  Open Entries AVG: 9.1
  Time Closed AVG: 467
  Time Open AVG: 133
[2]; Trial 1
  Closed Entries AVG: 6.6
  Open Entries AVG: 5.8
  Time Closed AVG: 206.8
  Time Open AVG: 93.2
[2]; [14]
  Closed Entries: 9 and 2 and 6 and 3 and 5 and 8 and 10 and 7
  Open Entries: 7 and 3 and 6 and 5 and 4 and 9
  Time Closed: 160 and 258 and 206 and 186 and 167 and 254 and 112 and 227 and 240
  Time Open: 140 and 42 and 94 and 114 and 133 and 46 and 188 and 73 and 60
[2]; Trial 2
  Closed Entries AVG: 4.6
  Open Entries AVG: 3.3
  Time Closed AVG: 260.2
  Time Open AVG: 39.8
[2]; [15]
  Closed Entries: 6 and 3 and 2 and 4 and 7
  Open Entries: 3 and 4 and 2 and 5 and 1 and 8
  Time Closed: 275 and 240 and 280 and 279 and 254 and 290 and 150 and 270 and 289
  Time Open: 25 and 60 and 20 and 21 and 46 and 10 and 150 and 30 and 11
[2]; total Time Open per total Open Entries, individual animals, listed as 143
  Time/Entry: 16.5 and 14.5714 and 14.875 and 8.857 and 22.5 and 14.9167 and 9.333 and 19.8824 and 10.3 and 8.875
